From patent US6384030B1, “Water soluble azoles as broad-spectrum antifungals” (priority 1998, dated 2002)
Converted amounts (≈) assume the structure as drawn.

Assays:
[1] = test system: other fungi (3 dermatophyte isolates, Aspergillus migatus, Cryptococcus neoformans, Sporothrix schenckii); assay: Fungal susceptibility, Panel 2 (example C1); type: cell-based; conditions: Panel 2: 6 other fungi (3 dermatophytes, Aspergillus, Cryptococcus neoformans, Sporothrix schenckii); CYG broth; growth below 35% of control
Candida spp. [2] = assay: Minimum fungicidal concentration (example C2); type: cell-based; conditions: 24 Candida isolates; RPMI 1640 buffered with MOPS, 2% glucose; subculture on Sabouraud glucose agar; read-out: Geometric mean minimum fungicidal concentrations
Description: (§1) A panel of 24 Candida isolates, 8 isolates of Aspergillus spp., 8 dermatophytes, 10 Zygomycetes, 10 Fusarium spp., 2 Cryptococcus neoformans and 8 dematiaceous hyphomycetes was used.
(§2) Inocula were prepared as in example C1 but the culture medium used in this test was RPMI 1640 buffered with MOPS, with 2% glucose (Odds, F. C., Antimicrobial Agents and Chemotherapy, 1995, 39, 2051-2060). Test compounds were added to the medium from DMSO solutions to give final concentrations in the series 10, 3.2, 1.0, 0.32, 0.10, 0.032, 0.010,0.0032 and 0.0010 μM. Incubation times and temperatures were as in example C1. Once the microdilution plates had been read for growth turbidity spectrophotometrically, samples of material were removed from the test cultures to inoculate 10 μl volumes on plates of Sabouraud glucose agar. The plates were incubated at 37° C. for 48 hours for yeasts or at other times and temperatures for other species. Geometric mean minimum fungicidal concentrations in μM which were determined as the lowest concentrations of the test compound that completely or substantially eliminated reappearance of fungal growth on the Sabouraud plates

Fusarium spp. = assay: Minimum fungicidal concentration (example C2); type: cell-based; conditions: 10 Fusarium spp.; RPMI 1640 buffered with MOPS, 2% glucose; subculture on Sabouraud glucose agar; read-out: Geometric mean minimum fungicidal concentrations
Description: as §1, §2

Zygomycetes = assay: Minimum fungicidal concentration (example C2); type: cell-based; conditions: 10 Zygomycetes; RPMI 1640 buffered with MOPS, 2% glucose; subculture on Sabouraud glucose agar; read-out: Geometric mean minimum fungicidal concentrations
Description: as §1, §2

[3] = Water solubility (example D1); type: physicochemical; conditions: aqueous buffer, thermodynamic from solid; water buffered with 0.1 M citric acid and 0.2 M Na2HPO4 (pH =4); shaken 1 day at room temperature; UV
Candida spp. [4] = assay: Fungal susceptibility, Panel 1 (example C1); type: cell-based; conditions: Panel 1: 8 isolates of Candida spp. incl. an azole-resistant C. albicans strain; CYG broth; 37° C. for 48 hours; growth below 35% of control; read-out: geometric mean minimum inhibitory concentration-value (MIC)
[5] = Saksena et al., Bioorganic & Medicinal Chemistry Letters (1995), 5(2), 127-132; cited from earlier work

`C[C@@H](N[C@H](C)[C@H](C)n1ncn(-c2ccc(N3CCN(c4ccc(OC[C@@H]5CO[C@@](Cn6cncn6)(c6ccc(F)cc6F)O5)cc4)CC3)cc2)c1=O)c1ccccc1` (relative stereo) [Compound 86, [2S-[2α,4α[(R*,S*)(S*)]]]-4-[4-[4-[4-[[2-(2,4-difluoropheny)-2-(1H-1,2,4-triazol-1-yl-methyl)-1,3-dioxolan-4-yl]methoxy]phenyl]-1-piperazinyl]phenyl]-2,4-dihydro-2-[2-[(1-phenylethyl)amino]-1-methylpropyl]-3H-1,2,4-triazol-3-one] gave an MIC [1] of 0.01 to 1 µM (≈ 0.00792 to 0.792 µg/mL), an MFC (Candida spp. [2]) of 1 to 10 µM (≈ 0.792 to 7.92 µg/mL) and an MFC (Fusarium spp.) of 1 to 10 µM (≈ 0.792 to 7.92 µg/mL). For the same molecule, the MFC (Zygomycetes) was 1 to 10 µM (≈ 0.792 to 7.92 µg/mL), the solubility at 1 day [3] was greater than 100 µg/mL and the MIC (Candida spp. [4]) was 0.01 to 1 µM (≈ 0.00792 to 0.792 µg/mL).
For `CN(C)CCn1ncn(-c2ccc(N3CCN(c4ccc(OC[C@@H]5CO[C@@](Cn6cncn6)(c6ccc(F)cc6F)C5)cc4)CC3)cc2)c1=O` (relative stereo) [(3R-cis)-4-[4-[4-[4-[[5-(2,4-difluorophenyl)tetrahydro-5-(1H-1,2,4-triazol-1-ylmethyl)-3-furanyl]methoxy]phenyl]-1-piperazinyl]phenyl]-2-[2-(dimethylamino)ethyl]-2,4-dihydro-3H-1,2,4-triazol-3-one], the “activity as antifungal compared to SCH 51048” value [5] is given as “profoundly less active”.
